Common to all, as to type: cell-based
The target in assay [1] is T1, Alpha-1D adrenergic receptor (Homo sapiens, UniProt P25100).
T1 sequence (P25100 whole entry): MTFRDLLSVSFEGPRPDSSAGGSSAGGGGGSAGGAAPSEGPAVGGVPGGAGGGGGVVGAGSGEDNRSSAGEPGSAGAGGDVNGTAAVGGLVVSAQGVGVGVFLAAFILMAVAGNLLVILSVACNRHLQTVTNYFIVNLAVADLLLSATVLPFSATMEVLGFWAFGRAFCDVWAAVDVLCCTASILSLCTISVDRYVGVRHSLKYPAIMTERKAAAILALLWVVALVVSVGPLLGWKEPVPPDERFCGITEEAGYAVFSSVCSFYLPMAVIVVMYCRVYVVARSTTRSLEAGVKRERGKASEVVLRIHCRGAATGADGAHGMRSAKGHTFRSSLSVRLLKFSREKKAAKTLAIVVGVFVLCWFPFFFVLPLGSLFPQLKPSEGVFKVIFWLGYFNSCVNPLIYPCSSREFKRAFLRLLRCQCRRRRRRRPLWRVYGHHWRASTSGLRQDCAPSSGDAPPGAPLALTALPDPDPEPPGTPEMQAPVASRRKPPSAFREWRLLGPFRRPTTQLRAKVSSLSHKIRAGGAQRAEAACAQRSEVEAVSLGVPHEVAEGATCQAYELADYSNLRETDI
Briefly: Displacement of [125I]HEAT from human Alpha-1D adrenergic receptor stably expressed in HL cells.

Assay [2] concerns the target T2, Alpha-1A adrenergic receptor (Homo sapiens, UniProt P35348).
T2 sequence (P35348 whole entry): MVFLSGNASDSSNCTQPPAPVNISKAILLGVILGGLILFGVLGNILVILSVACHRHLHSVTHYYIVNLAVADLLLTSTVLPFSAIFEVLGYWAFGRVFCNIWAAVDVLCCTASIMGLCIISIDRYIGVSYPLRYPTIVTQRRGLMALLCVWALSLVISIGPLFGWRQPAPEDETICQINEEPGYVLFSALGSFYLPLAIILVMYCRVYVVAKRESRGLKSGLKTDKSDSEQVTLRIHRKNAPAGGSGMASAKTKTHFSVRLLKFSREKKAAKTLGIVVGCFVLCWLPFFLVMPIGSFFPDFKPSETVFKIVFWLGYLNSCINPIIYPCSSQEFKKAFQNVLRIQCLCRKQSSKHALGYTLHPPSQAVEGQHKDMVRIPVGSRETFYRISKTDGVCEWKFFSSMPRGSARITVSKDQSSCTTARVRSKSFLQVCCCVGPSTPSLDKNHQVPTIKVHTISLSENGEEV
The assay is described as follows: Displacement of [125I]HEAT from human Alpha-1A adrenergic receptor stably expressed in CHO cells.

Assay [3] deals with T3, Alpha-1B adrenergic receptor (Homo sapiens, UniProt P35368).
T3 sequence (P35368 whole entry): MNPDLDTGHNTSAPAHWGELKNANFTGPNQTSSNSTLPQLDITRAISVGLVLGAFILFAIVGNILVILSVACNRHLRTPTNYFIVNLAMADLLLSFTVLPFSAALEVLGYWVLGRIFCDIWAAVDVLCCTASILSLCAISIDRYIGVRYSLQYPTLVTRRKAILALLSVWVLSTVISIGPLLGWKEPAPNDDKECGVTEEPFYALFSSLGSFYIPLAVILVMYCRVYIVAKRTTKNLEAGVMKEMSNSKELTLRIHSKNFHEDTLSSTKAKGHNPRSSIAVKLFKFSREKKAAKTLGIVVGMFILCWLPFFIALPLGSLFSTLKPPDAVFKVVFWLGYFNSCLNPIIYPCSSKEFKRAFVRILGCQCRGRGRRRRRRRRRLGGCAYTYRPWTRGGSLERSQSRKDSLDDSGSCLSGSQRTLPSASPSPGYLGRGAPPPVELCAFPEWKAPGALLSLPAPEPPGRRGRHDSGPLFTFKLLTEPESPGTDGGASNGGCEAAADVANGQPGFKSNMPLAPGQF
The assay is described as follows: Displacement of [125I]HEAT from human Alpha-1B adrenergic receptor stably expressed in LM cells.

As to `COCC1=C(C(=O)OC)[C@H](c2ccc(F)c(F)c2)N(C(=O)N[C@@H]2CC[C@H](N3CCC(C#N)(c4ccccc4)CC3)C2)C(=O)N1`, the Ki was determined as 620 nM in assay [1], 1 nM in assay [2] and 1900 nM in assay [3].

For `COCC1=C(C(=O)OC)[C@H](c2ccc(F)c(F)c2)N(C(=O)N[C@@H]2CC[C@@H](N3CCC(c4ccccc4C#N)CC3)C2)C(=O)N1`, the Ki in assay [1] amounted to 31 nM; in assay [2], 0.46 nM; in assay [3] it was 91 nM.

`COCC1=C(C(=O)OC)[C@H](c2ccc(F)c(F)c2)N(C(=O)N[C@H]2CC[C@H](N3CCN(c4ccccc4C#N)CC3)C2)C(=O)N1`: the Ki in assay [1] turned out to be 9 nM; in assay [2], 4.8 nM; in assay [3], 15 nM.

Turning to `COCC1=C(C(=O)OC)[C@H](c2ccc(F)c(F)c2)N(C(=O)N[C@H]2CC[C@@H](N3CCC(c4ccccc4C#N)CC3)C2)C(=O)N1`, the Ki in assay [1] was determined as 97 nM; in assay [2] it was 0.6 nM; in assay [3] it was 70 nM.

With `COCC1=C(C(=O)OC)[C@H](c2ccc(F)c(F)c2)N(C(=O)N[C@@H]2CC[C@H](N3CCC(c4ccccn4)CC3)C2)C(=O)N1`, the Ki in assay [1] turned out to be 320 nM; in assay [2] it was 0.4 nM; in assay [3], 1300 nM.

Take `COCC1=C(C(=O)OC)[C@H](c2ccc(F)c(F)c2)N(C(=O)N[C@H]2CC[C@@H](N3CCC(C#N)(c4ccccc4)CC3)C2)C(=O)N1`: the Ki in assay [1] stood at 660 nM; in assay [2] it was 2.4 nM; in assay [3] it was 730 nM.

Regarding `COCC1=C(C(=O)OC)[C@H](c2ccc(F)c(F)c2)N(C(=O)N[C@@H]2CC[C@H](N3CCC(c4ccccc4C#N)CC3)C2)C(=O)N1`, the Ki in assay [1] worked out at 16 nM; in assay [2], 0.24 nM; in assay [3], 130 nM.

For the molecule `COCC1=C(C(=O)OC)[C@H](c2ccc(F)c(F)c2)N(C(=O)N[C@@H]2CC[C@H](N3CCN(c4ccccc4C#N)CC3)C2)C(=O)N1`, the Ki in assay [1] amounted to 7.5 nM; in assay [2], 1.6 nM; in assay [3], 28 nM.

Regarding `COCC1=C(C(=O)OC)[C@H](c2ccc(F)c(F)c2)N(C(=O)N[C@H]2CC[C@@H](N3CCN(c4ccccc4C#N)CC3)C2)C(=O)N1`, the Ki in assay [1] worked out at 39 nM; in assay [2], 0.44 nM; in assay [3] it was 51 nM.

Turning to `COCC1=C(C(=O)OC)[C@H](c2ccc(F)c(F)c2)N(C(=O)N[C@H]2CC[C@H](N3CCC(C#N)(c4ccccc4)CC3)C2)C(=O)N1`, the results for the Ki in assay [1], in assay [2] and in assay [3] were 95 nM, 2.3 nM and 120 nM, respectively.

In the case of `COCC1=C(C(=O)OC)[C@H](c2ccc(F)c(F)c2)N(C(=O)N[C@@H]2CC[C@@H](N3CCC(c4ccccn4)CC3)C2)C(=O)N1`, the Ki in assay [1] is 500 nM; in assay [2], 0.38 nM; in assay [3], 350 nM.

For the molecule `COCC1=C(C(=O)OC)[C@H](c2ccc(F)c(F)c2)N(C(=O)N[C@@H]2CC[C@@H](N3CCC(C#N)(c4ccccc4)CC3)C2)C(=O)N1`, the Ki turned out to be 660 nM in assay [1], 0.37 nM in assay [2] and 210 nM in assay [3].

Take `COCC1=C(C(=O)OC)[C@H](c2ccc(F)c(F)c2)N(C(=O)N[C@H]2CC[C@H](N3CCC(c4ccccc4C#N)CC3)C2)C(=O)N1`: the results for the Ki in assay [1], in assay [2] and in assay [3] were 11 nM, 2.4 nM and 36 nM, respectively.

Take `COCC1=C(C(=O)OC)[C@H](c2ccc(F)c(F)c2)N(C(=O)N[C@H]2CC[C@H](N3CCC(c4ccccn4)CC3)C2)C(=O)N1`: the Ki in assay [1] is 170 nM; in assay [2] it was 8.3 nM; in assay [3], 130 nM.

Consider `COCC1=C(C(=O)OC)[C@H](c2ccc(F)c(F)c2)N(C(=O)N[C@@H]2CC[C@@H](N3CCN(c4ccccc4C#N)CC3)C2)C(=O)N1`, for which the Ki was determined as 5.4 nM in assay [1], 0.9 nM in assay [2] and 14 nM in assay [3].

For the molecule `COCC1=C(C(=O)OC)[C@H](c2ccc(F)c(F)c2)N(C(=O)N[C@H]2CC[C@@H](N3CCC(c4ccccn4)CC3)C2)C(=O)N1`, the figures for the Ki in assay [1], in assay [2] and in assay [3] were 550 nM, 4.7 nM and 290 nM, respectively.

The values are drawn from ChEMBL document CHEMBL1133287, “Preparation and evaluation of 1,3-diaminocyclopentane-linked dihydropyrimidinone derivatives as selective alpha1a-receptor antagonists” (Bioorg Med Chem Lett, 2000).
